From article PMC9569995, “Study of Biological Activities and ADMET-Related Properties of Salicylanilide-Based Peptidomimetics” (International Journal of Molecular Sciences, 2022) come the findings set out here.

Series [1] can be described thus: Lipophilicity determination by HPLC. It counts as physicochemical. Particulars: for log D6.5: HPLC C18, MeOH 72%/acetate-buffered saline pH 6.5 28%; for log D7.4: HPLC C18, MeOH 72%/acetate-buffered saline pH 7.4 28%; for log k: logarithm of capacity factor, HPLC C18, MeOH 72%/H2O 28%. An excerpt: . A chromatographic column Symmetry® C18 5 μm, 4.6 × 250 mm, Part No. W21751W016 (Waters Corp, Milford, MA, USA) was used. The HPLC separation process was monitored by ChemStation for LC 3D systems (Agilent Technologies). Isocratic elution by a mixture of MeOH (HPLC grade, 72%) and H2O-HPLC Mili-Q grade (28%) as a mobile phase was used for the determination of capacity factor k. Isocratic elution by a mixture of MeOH (HPLC grade, 72%) and acetate-buffered saline (pH 7.4 and pH 6.5) (28%) as a mobile phase was used for the determination of distribution coefficient expressed as D7.4 and D6.5. The total flow of the column was 1.0 mL/min, injection was 20 μL, column temperature was 40 °C, and sample temperature was 10 °C. The detection wavelength of 210 nm was chosen. A KI methanolic solution was used for the determination of the dead times (tD). Retention times (tR) were measured in minutes. The capacity factors k were calculated according to the formula k = (tR − tD)/tD, where tR is the retention time of the solute, and tD is the dead time obtained using an unretained analyte. The distribution coefficients DpH were calculated according to the formula DpH = (tR − tD)/tD. Each experiment was repeated three times.

A further series relates to M. smegmatis ATCC 700084. The series can be described thus: In vitro antimycobacterial evaluation, MIC (broth dilution micro-method). To be noted: Mycolicibacterium smegmatis. It counts as cell-based, Mycobacterium smegmatis. On the procedure: For M. smegmatis, the broth dilution micro-method in Middlebrook 7H9 medium (Difco) supplemented with ADC Enrichment (Difco) was used. […] Bacterial inocula were prepared by transferring colonies from culture to sterile water. The cell density was adjusted to 0.5 McFarland units using a densitometer (Densi-La-Meter, LIAP, Riga, Latvia). The final inoculum was made by 1:1000 dilution of the suspension with sterile water. Drug-free controls, sterility controls, and controls consisting of medium and DMSO alone were included. The determination of results was performed visually after three days of static incubation in the darkness at 37 °C in an aerobic atmosphere.
In general terms: Broth dilution looks for growth in wells or tubes with falling amounts of substance.

In series [2] the test system is human monocytic leukemia cell line THP-1. Description: In vitro cell viability analysis (CCK-8). The series is classed as cell-based. Particulars: ± SD, n = 6, medium with 10% FBS, 24 h. On the procedure: Human monocytic leukemia THP-1 cells obtained from the European Collection of Cell Cultures (ECACC, Salisbury, UK) were used for in vitro antiproliferative assays. They were routinely cultured in Roswell Park Memorial Institute RPMI 1640 medium supplemented with 10% fetal bovine serum (FBS), 2% L-glutamine, 1% penicillin, and streptomycin (all from Sigma-Aldrich) at 37 °C with 5% CO2. The cells were incubated in a complete medium (i.e., containing FBS) with test compounds at 37 °C with 5% CO2 for 24 h, similarly as we described previously. The effect of the test compounds dissolved in DMSO on cell viability was determined using a Cell Counting Kit-8 (CCK-8; Sigma) according to the manufacturer’s instructions.

In series [3] the test system is Mycobacterium tuberculosis H37Ra/ATCC 25177. Description: In vitro antimycobacterial evaluation, MIC (alamarBlue). To be noted: MT.
For series [4], the system named is Staphylococcus aureus ATCC 29213. The series can be described thus: In vitro antibacterial evaluation, MIC by microtitration broth method.
In series [5] the test system is methicillin-resistant S. aureus SA 3202. Described as above. Particulars: Staphylococcus aureus.
The subject of series [6] is methicillin-resistant S. aureus SA 630. Described as above. To be noted: Staphylococcus aureus.
The subject of series [7] is methicillin-resistant S. aureus 63718. Described as above. To be noted: Staphylococcus aureus.
Series [8] deals with Enterococcus faecalis ATCC 29212. The description is as above.
The subject of series [9] is vancomycin-resistant E. faecalis VRE 342B. Described as above. Particulars: Enterococcus faecalis.
Series [10] has as its system vancomycin-resistant E. faecalis VRE 368. The description is as above. Particulars: Enterococcus faecalis.
The subject of series [11] is vancomycin-resistant E. faecalis VRE 725B. The series is described as above. Particulars: Enterococcus faecalis.
Where [12] appears, read: ATCC700084, 72 h, MS, three days, 37 °C, read-out: MIC.

Like-named read-outs stand apart in the source and are kept apart here.

Regarding `CC(C)C[C@H](NC(=O)[C@H](Cc1ccccc1)NC(=O)c1cc(Cl)ccc1OCc1ccccc1)C(=O)Nc1ccc(C(F)(F)F)cc1` [5b], the “log D6.5” value in series [1] was determined as 1.994. Besides, in series [1], the “log D7.4” value was 2.027. In series [1], this compound displayed a log k of 2.049. In addition, the MIC (with M. smegmatis ATCC 700084 (ATCC700084); in series [3] (Table S2); in [4] (ATCC29213); in series [5]; in series [6]; in series [7]) was greater than 256 µg/mL throughout. Besides, the MIC in series [8] (ATCC29212), in series [9], in [10] and in series [11] was greater than 256 µg/mL throughout. For the same compound, the IC50 in series [2] was greater than 10 µM.
Turning to `CCCC[C@H](NC(=O)c1cc(Cl)ccc1OCc1ccccc1)C(=O)Nc1ccc(C(F)(F)F)cc1` [2d, 2-(Benzyloxy)-5-chloro-N-[(2S)-1-oxo-1-{[4-(trifluoromethyl)phenyl]amino}hexan-2-yl]benzamide], the “log D6.5” value in [1] was 1.954. Moreover, the “log D7.4” value in series [1] is given as 1.902. In addition, the log k in series [1] was found to be 1.898. In addition, the MIC (in the series with M. smegmatis ATCC 700084 (ATCC700084); in series [3] (Table S2); in [4] (ATCC29213); in series [5]; in series [6]; in series [7]) was greater than 256 µg/mL each time. For the same compound, the MIC in [8] (ATCC29212), in [9], in series [10] and in series [11] was greater than 256 µg/mL each time. The same compound had an IC50 in [2] greater than 10 µM.
On to `CC(C)C[C@H](NC(=O)c1cc(Cl)ccc1OCc1ccccc1)C(=O)N[C@@H](Cc1ccccc1)C(=O)Nc1ccc(C(F)(F)F)cc1` [5a], for which the “log D6.5” value in series [1] was determined as 1.998. In addition, in series [1], the “log D7.4” value worked out at 2.031. Besides, the log k in [1] stood at 2.053. In addition, the MIC (with M. smegmatis ATCC 700084 (ATCC700084); in series [3] (Table S2); in series [4] (ATCC29213); in [5]; in [6]; in [7]) was greater than 256 µg/mL each time. For the same compound, the MIC in [8] (ATCC29212), in series [9], in series [10] and in series [11] was greater than 256 µg/mL in each case. Besides, the IC50 in [2] was greater than 10 µM.
As for `C[C@H](NC(=O)c1cc(Cl)ccc1OCc1ccccc1)C(=O)Nc1ccc(C(F)(F)F)cc1` [2a, 2-(Benzyloxy)-5-chloro-N-[(2S)-1-oxo-1-{[4-(trifluoromethyl)phenyl]amino}propan-2-yl]benzamide], the “log D6.5” value in series [1] was 1.489. Besides, the “log D7.4” value in [1] worked out at 1.474. Besides, in series [1] (average of the three experimental descriptors), the “averaged lipophilicity value of log k/log D6.5/log D7.4” value was determined as 1.47 ± 0.02. In addition, the log k in series [1] was 1.450. In addition, the MIC (with M. smegmatis ATCC 700084 (ATCC700084); in [3] (Table S2); in series [4] (ATCC29213); in [5]; in series [6]; in series [7]) was greater than 256 µg/mL in each case. Moreover, the MIC in series [8] (ATCC29212), in series [9], in [10] and in series [11] was greater than 256 µg/mL throughout. The same compound showed an IC50 in series [2] greater than 10 µM.
Turning to `O=C(N[C@@H](CC1CCCCC1)C(=O)Nc1ccc(C(F)(F)F)cc1)c1cc(Cl)ccc1OCc1ccccc1` [2g, 2-(Benzyloxy)-5-chloro-N-[(2S)-3-cyclohexyl-1-oxo-1-{[4-(trifluoromethyl)phenyl]amino}propan-2-yl]benzamide], in [1], the “log D6.5” value is recorded as 1.767. Further, the “log D7.4” value in [1] worked out at 1.746. In [1], this compound registered a log k of 1.820. Besides, the MIC (with M. smegmatis ATCC 700084 (ATCC700084); in [3] (Table S2); in series [4] (ATCC29213); in [5]; in [6]; in [7]) was greater than 256 µg/mL each time. In addition, the minimum inhibitory concentration (MIC) in [8] (ATCC29212), in series [9], in [10] and in series [11] was greater than 256 µg/mL throughout. The IC50 in [2] was greater than 10 µM.
Turning to `CC(C)C[C@H](NC(=O)c1cc(Cl)ccc1O)C(=O)N[C@@H](Cc1ccccc1)C(=O)Nc1ccc(C(F)(F)F)cc1` [6a], in series [1], the “log D6.5” value came to 1.510. The “log D7.4” value in [1] was 1.493. Besides, the log k in [1] is 1.560. Further, the MIC in the series with M. smegmatis ATCC 700084 (setting [12]) is greater than 256 µg/mL; in series [3] (14 days, 37 °C), “n.a. n.d. (n.a. = no activity (MIC > 256 µg/mL))”; in [4] (ATCC29213, 24 h), 222 µM; in series [5] (24 h), 444 µM; in series [6] (24 h), 444 µM; in [7] (24 h), 444 µM. Also, the MIC in [8] (ATCC29212, 24 h) is greater than 256 µg/mL; in [9] (24 h), greater than 256 µg/mL; in series [10] (24 h), greater than 256 µg/mL; in [11] (24 h), greater than 256 µg/mL. Inhibition in [2] was half-maximal at 2.2 ± 1.1 µM (IC50).
In the case of `CSCC[C@H](NC(=O)c1cc(Cl)ccc1OCc1ccccc1)C(=O)Nc1ccc(C(F)(F)F)cc1` [2e, 2-(Benzyloxy)-5-chloro-N-[(2S)-4-(methylsulfanyl)-1-oxo-1-{[4-(trifluoromethyl)phenyl]amino}butan-2-yl]benzamide], in series [1], the “log D6.5” value amounted to 1.714. The “log D7.4” value in series [1] was 1.689. Further, in series [1], the log k is given as 1.668. The minimal inhibitory concentration (MIC) (in the series on M. smegmatis ATCC 700084 (ATCC700084); in [3] (Table S2); in [4] (ATCC29213); in [5]; in [6]; in series [7]) was greater than 256 µg/mL each time. Besides, the MIC in series [8] (ATCC29212), in series [9], in series [10] and in series [11] was greater than 256 µg/mL in each case. In series [2], this compound returned a half-inhibitory concentration (IC50) greater than 10 µM.
Consider `CCC[C@H](NC(=O)c1cc(Cl)ccc1O)C(=O)Nc1ccc(C(F)(F)F)cc1` [3b, 5-Chloro-2-hydroxy-N-[(2S)-1-oxo-1-{[4-(trifluoromethyl)phenyl]amino}pentan-2-yl]benzamide], for which the “log D6.5” value in [1] worked out at 1.060. In addition, the “log D7.4” value in series [1] is recorded as 1.016. The same compound returned a log k in series [1] of 1.141. Also, the MIC in the series on M. smegmatis ATCC 700084 (setting [12]) was greater than 256 µg/mL; in [3] (14 days, 37 °C), “n.a. n.d. (n.a. = no activity (MIC > 256 µg/mL))”; in series [4] (ATCC29213, 24 h), greater than 256 µg/mL; in series [5] (24 h), greater than 256 µg/mL; in series [6] (24 h), greater than 256 µg/mL; in [7] (24 h) it was greater than 256 µg/mL. Further, the MIC is greater than 256 µg/mL in series [8] (ATCC29212, 24 h); greater than 256 µg/mL in [9] (24 h); greater than 256 µg/mL in series [10] (24 h); greater than 256 µg/mL in series [11] (24 h). The same compound yielded an IC50 in series [2] of 7.3 ± 1.2 µM.
Consider `NNC(=O)c1ccncc1` [INH, isoniazid, reference compound], for which the MIC in the series with M. smegmatis ATCC 700084 (setting [12]) is 117 µM; in [3] (14 days, 37 °C), 36.6 – µM.

As usually defined, the MIC is the lowest concentration that inhibits growth of the organism. The IC50 is the point on the concentration scale where inhibition reaches its midpoint. A lower IC50 goes with greater potency.
